Consider 1 substance from article PMC7072606, “Discrimination of Naturally-Occurring 2-Arylbenzofurans as Cyclooxygenase-2 Inhibitors: Insights into the Binding Mode and Enzymatic Inhibitory Activity” (Biomolecules, 2020).

This experiment has as its target T1, bovine COX-2 (Bos taurus, UniProt O62698).
T1 sequence (O62698 18-604): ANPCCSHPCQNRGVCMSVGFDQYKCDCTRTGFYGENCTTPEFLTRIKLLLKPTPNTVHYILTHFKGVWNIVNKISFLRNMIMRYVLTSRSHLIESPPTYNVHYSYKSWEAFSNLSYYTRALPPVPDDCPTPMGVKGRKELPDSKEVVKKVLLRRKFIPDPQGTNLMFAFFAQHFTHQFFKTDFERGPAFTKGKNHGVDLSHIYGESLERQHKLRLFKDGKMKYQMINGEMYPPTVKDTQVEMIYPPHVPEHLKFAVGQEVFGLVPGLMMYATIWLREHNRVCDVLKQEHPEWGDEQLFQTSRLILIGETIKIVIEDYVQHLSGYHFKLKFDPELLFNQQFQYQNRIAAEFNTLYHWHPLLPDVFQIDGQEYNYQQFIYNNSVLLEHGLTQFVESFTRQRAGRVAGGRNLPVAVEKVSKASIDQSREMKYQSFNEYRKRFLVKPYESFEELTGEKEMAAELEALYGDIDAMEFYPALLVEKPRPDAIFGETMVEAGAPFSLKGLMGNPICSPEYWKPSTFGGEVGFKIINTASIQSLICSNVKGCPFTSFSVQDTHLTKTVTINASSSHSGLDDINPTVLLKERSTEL
Put plainly: COX-2 inhibition assay, enzyme immunoassay (EIA) kit. The experiment is classed as biochemical. Particulars: in-vitro. How it is done:
The ability of selected compounds to inhibit bovine COX-2 was determined using an enzyme immunoassay (EIA) kit (Cayman Chemical Company, Ann Arbor, MI, USA), according to the reported method. The activity was expressed as half-maximal inhibitory concentrations, IC50 (in μM), obtained after non-linear regression, using the program GraphPad Prism version 5.00 (GraphPad Software, San Diego, CA, USA).

Regarding salvianolic acid B [Compound 51], the IC50 is 10.5 µM.
